Source: patent US20080200635A1, “POLYSILANE COMPOUND AND SYNTHESIS METHOD, ULTRAVIOLET-RAY CURABLE INK COMPOSITION, INKJET RECORDING METHOD AND APPARATUS, AND INK CONTAINER” (SEIKO EPSON CORPORATION, priority 2007, published 2008)

What was measured:
[1] = Viscosity of monomers at 25° C.; format: physicochemical; conditions: measured value at 25° C.
Procedure: The viscosities in the foregoing table are a measured value at 25° C.

[2] = primary irritation index; cited from earlier work

| Viscosity [1] | Compound | P.I.I. [2] |
| --- | --- | --- |
| 6 mPa · s | C=C(C)C(=O)OCCCCCCOC(=O)C(=C)C [1,6-Hexanediol dimethacrylate] | 0.5 |
| 21 mPa · s | C=CC(=O)OCCCCCCCCCOC(=O)C=C [1,9-Nonanediol diacrylate] | 2.0 |
| 37 mPa · s | C=C(C)C(=O)OCC(O)COC(=O)C(=C)C [2-Hydroxy-1,3-dimethacryloxypropane] | 0.6 |
| 5.1 mPa · s | C=C(C)C(=O)OCC1COC(C)(CC)O1 (centres unmarked) [(2-Methyl-2-ethyl-1,3-dioxolan-4-yl)methyl methacrylate] | 1.3 |
| 5 mPa · s | C=C(C)C(=O)OCCOCCOC(=O)C(=C)C [Diethylene glycol dimethacrylate] | 0.5 |
| 2.6 mPa · s | C=CC(=O)O[C@@H]1C[C@H]2CC[C@]1(C)C2(C)C [Isobonyl acrylate] | 0.6 |
| 14 mPa · s | C=C(C)C(=O)OCCOCCOCCOCCOC(=O)C(=C)C [Tetraethylene glycol dimethacrylate] | 0.5 |
| 75 mPa · s | Glycerin PO-modified triacrylate | – |
| 58 mPa · s | Polyethylene glycol #400 diacrylate | 0.4 |
| 60 mPa · s | Trimethylolpropane PO-modified triacrylate | 0.1 |
| 55 mPa · s | Trimethylolpropane modified triacrylate | 1.5 |

Further lines, the compound ahead of its results:

| Compound | Viscosity [1] | P.I.I. [2] |
| --- | --- | --- |
| C=C(C)C(=O)OCCCCOC(=O)C(=C)C [1,4-Butanediol dimethacrylate] | 7 mPa · s | 2.0 |
| C=CC(=O)OCC1COC(C)(CC(C)C)O1 (centres unmarked) [(2-Methyl-2-isobutyl-1,3-dioxolan-4-yl)methyl acrylate] | 5.3 mPa · s | 1.0 |
| C=CC(=O)N1CCOCC1 [Acryloyl morpholine] | 12 mPa · s | – |
| C=C(C)C(=O)OCCOC(=O)C(=C)C [Ethylene glycol dimethacrylate] | 3 mPa · s | 0.6 |
| C=CC(=O)OCCOCCOC [Methoxy diethylene glycol monoacrylate] | 2 mPa · s | 0.7 |
| C=C(C)C(=O)OCC(C)(C)COC(=O)C(=C)C [Neopentyl glycol dimethacrylate] | 7 mPa · s | 0.0 |
| C=CC(=O)OCCOc1ccccc1 [Phenoxyethyl acrylate] | 3.3 mPa · s | 1.7 |
| C=C(C)C(=O)OCC(CC)(COC(=O)C(=C)C)COC(=O)C(=C)C [Trimethylolpropane trimethacrylate] | 42 mPa · s | 0.8 |
| C=CC(=O)OCC(C)OCC(C)OCC(C)OC(=O)C=C (centres unmarked) [Tripropylene glycol diacrylate] | 12 mPa · s | 1.6 |
